Measured values from patent publication US7589125B2, “2,4-dihydroxybenzoic acid derivatives” (Palau Pharma, S.A., priority 2002, dated 2009).
Blank lines part the entries; values can stand above or below the molecule they belong to.

Legend:
farnesyltransferase = farnesyltransferase (Homo sapiens, UniProt P49356); settings: Hardcastle et al, Tetrahedron Letters 2001, 42(7), 1363-1365; cited from earlier work
Male Swiss mice = experiment: Test 1 - Oxazolone-induced delayed hypersensitivity in mice (ear edema); format: in vivo; settings: topical on right ear, solution in acetone; FIG. 1
Protocol: Test 1—Oxazolone-induced Delayed Hipersensitivity in Mice
Method: Male Swiss mice (25-30 g body weight) were sensitized by the application of a 2% solution of oxazolone (Sigma) in acetone (50 μL) into the shaved abdomen. Seven days later, 25 μL of a 1.5% solution of oxazolone was applied on both surfaces of the right ear of the animals. The left ear served as control and was only treated with the vehicle (acetone). 20 μL of the test compound (dissolved in acetone) or vehicle alone (control) was applied on both sides of the right ear, 24 h before challenge and 1 and 5 h after challenge. To evaluate the edema, mice were killed (by CO2 inhalation) and an 8 mm disc was excised from the right and left ears. The edema was measured by the difference in weight between the two ears and inhibition was expressed as percentage in relation to the control group.

[1] = system: immune-deficient BNX mice transplanted with human psoriatic skin; experiment: Test 2 - Psoriasis model in immune-deficient BNX mice transplanted with human psoriatic skin; format: in vivo; settings: topical ointment at the concentration of 0.1%; p<0.01
Excerpt: Test 2—Psoriasis Model in Immune-deficient BNX Mice Transplanted with Human Psoriatic Skin
Method: The goal of this study is to assess the effect of the test compounds on the development of a psoriatic lesion, induced by super-antigen-activated human peripheral blood T-cells, in non-lesional skin from a psoriasis patient transplanted onto immune-deficient BNX mice. Mice (male/female, circa 20 g, 5 mice per group) were transplanted with non-lesional skin biopsies from psoriasis patients. Peripheral blood mononuclear cells from the same patients were isolated and stored in freezer until further use. Transplants were allowed to “lake” for 4 weeks. After this period, transplants were treated topically with test compound or control (vehicle) preparations for 1 week. Then, peripheral blood mononuclear cells from psoriatic patients, previously activated in vitro for 2 days with super-antigen, were injected into the transplants intra-dermally. Transplants were treated with test compound or control preparations for two additional weeks. Transplants were then harvested and epidermal thickness was measured by using computer-aided morphometric analysis.

Male Lewis rats = experiment: Test 3 - Inhibition of adjuvant-induced arthritis in the rat; format: in vivo; settings: 10 mg/kg/day p.o. for 28 days
Protocol: Test 3—Inhibition of Adjuvant-induced Arthritis in the Rat
Method: Male Lewis rats with body weight between 140 and 170 g and 7 week-old were used. Before the start of the study animals were acclimated for a period of at least 5 days. Animals were fasted for 18 hours before the study, with water ad libitum. Throughout the study, animals were allowed free access to drinking water, except during observation periods.
Groups of five animals were randomized (Sham, Control and Test compound). The duration of the study was 28 days. Arthritis was induced on day 1 of the study by a single subplantar injection of 0.1 mL of an emulsion prepared with 10 mg Mycobacterium butyricum and 10 mL Freund's incomplete adjuvant (Difco) to the right hindpaw of the animals from the Control (C) and Test compound (T) groups. Sham animals (S) received 0.1 mL Freund's incomplete adjuvant. Test compound was administered daily from day 1 of the study until day 28 at a dose of 10 mg/kg p.o. as a suspension in 1% Tween 80® while the Control group only received the vehicle. On day 28 of the development of arthritis, the volume of the left paw (secondary edema) was determined using a UGO BASILE 7150 plethysmometer. The inhibition of the increase in volume was calculated as follows: % Inh.=100−((T−S)/(C−S))*100 Where: T=Test compound group; C=Control group; and S=Sham group

[2] = system: splenic lymphocytes from C57BL/6 mice stimulated with splenic lymphocytes from CBA mice; experiment: Test 4 - Immunosuppression model: murine mixed lymphocyte reaction; format: cell-based
Protocol: Test 4—Immunosupression Model: Murine Mixed Lymphocyte Reaction
Method: Immunosuppression was assessed by testing the effects of the compounds on the proliferation of splenic lymphocytes from C57BL/6 mice strain stimulated with splenic lymphocytes from CBA mice strain. Splenic lymphocyte populations were isolated from two mouse strains: CBA (acting as stimulating cells) and C57BL/6 (acting as proliferating cells). Homogenized mouse spleen was filtered and subsequently centrifuged at 250×g for 5 minutes at 4° C. The pellets were resuspended in culture medium (RPMI 1640 supplemented with 5% fetal calf serum and 2% antibiotics) and after repeating this process twice they were adjusted to a final density of 5×10^6 cells/mL. The isolated lymphocytes from CBA strain were treated with mitomycin C to block their proliferation.
In a 96-well plate, solutions of the test compounds or culture medium alone (for the control) were distributed. Next, 5×10^5 C57BL/6 cells and 2.5×10^5 CBA cells were added and incubated for 48 h (37° C., 5% CO2). After this preincubation 1 μCi of [^3H]-thymidine and 0.2 mM unlabeled thymidine were added to each well and the mixture was incubated 24 h. […]
Lymphocyte proliferation was measured as [^3H]-thymidine incorporation into the DNA of responding cells (C57BL/6) using a liquid scintillation counter (LS series, Beckman).

[3] = system: hamster lung fibroblast cell line (V79 cells); experiment: Test 5 - Induction of apoptosis in tumor cells (active caspase-3, flow cytometry); format: cell-based
Protocol: Test 5: Induction of Apoptosis in Tumor Cells
Method: The ability of the compounds of the invention to induce apoptosis was determined in a hamster lung fibroblast cell line (V79 cells). To determine the induction of apoptosis a commercially available kit was used (CaspaTag™ Caspase-3 (DEVD) Activity Kit, Intergen); this kit detects the presence in the cells of the active form of the enzyme caspase-3, which is an apoptosis marker. V79 cells were incubated for 72 h in culture medium (DMEM supplemented with 2 mM Glutamine and 10% fetal calf serum) in the presence of test compound (30 and 100 μM; solution in phosphate-buffered saline) or vehicle. Next, cells were washed with phosphate-buffered saline, treated with Trypsin-EDTA solution until the cell layer was dispersed and were resuspended in fresh growth medium at a concentration of 10^6 cells/mL. A 300 μL aliquote of each of the samples was transferred to a tube and was incubated with the irreversible, carboxyfluorescein-labeled peptidic caspase-3 inhibitor FAM-DEVD-FMK for 1 hour at 37° C. in 5% CO2 and protecting the tubes from light following the kit's instructions. […] The inhibitor in excess was washed and the cells were then analyzed by flow cytometry at 488 nm.

[4] = system: human peripheral blood mononuclear cells (PBMC); experiment: Cell viability in human non-proliferating cells (PBMC); format: cell-based; settings: concentrations up to 500 μM, 72 h of incubation
[5] = system: human umbilical vein endothelial cells (HUVEC); experiment: Cell viability in human non-proliferating cells (HUVEC); format: cell-based; settings: concentrations up to 500 μM, 72 h of incubation

Chain of farnesyltransferase (P49356 whole entry): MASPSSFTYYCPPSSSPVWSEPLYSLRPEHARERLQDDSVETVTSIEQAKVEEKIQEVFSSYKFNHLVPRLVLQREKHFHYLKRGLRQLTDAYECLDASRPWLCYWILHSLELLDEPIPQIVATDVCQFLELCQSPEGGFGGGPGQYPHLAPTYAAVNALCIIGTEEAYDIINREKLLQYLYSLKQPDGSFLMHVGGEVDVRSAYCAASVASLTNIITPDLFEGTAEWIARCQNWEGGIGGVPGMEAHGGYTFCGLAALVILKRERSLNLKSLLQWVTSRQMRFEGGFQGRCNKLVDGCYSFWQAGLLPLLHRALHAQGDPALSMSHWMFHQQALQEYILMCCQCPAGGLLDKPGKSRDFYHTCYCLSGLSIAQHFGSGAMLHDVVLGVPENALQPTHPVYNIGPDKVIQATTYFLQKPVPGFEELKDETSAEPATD

Compound: O=C(O)c1c(O)c(F)c(OCCCF)c(F)c1F [2,3,5-trifluoro-4-(3-fluoropropoxy)-6-hydroxybenzoic acid]
- farnesyltransferase inhibition (farnesyltransferase): inactive

- melting point: 64 °C
Compound: COC(=O)c1ccc(OCCF)cc1O [Example 4, Methyl 2-hydroxy-4-(2-fluoroethoxy)benzoate]

Compound: O=C(O)c1ccc(OCC(F)(F)C(F)(F)F)cc1O [Example 6, 2-Hydroxy-4-(2,2,3,3,3-pentafluoropropoxy)benzoic acid]
- inhibition of the edema (difference in weight between the two ears) (Male Swiss mice): concentration-dependent inhibition of the edema
- inhibition of the increase of the epidermal thickness induced by intradermal injection of activated mononuclear cells [1]: significant inhibition
- inhibition of the increase in volume of the left paw (secondary edema) (Male Lewis rats): significant inhibition
- inhibition of mice splenic lymphocyte proliferation ([3H]-thymidine incorporation) ([2]; 300 μM): completely inhibited
- inhibition at 100 µM ([2]; Mus musculus, Splenic lymphocyte, 100 μM, read-out: inhibition of the proliferation of mice splenic lymphocytes): 60%
- number of cells containing the active form of caspase-3 (apoptotic cells) ([3]; 30 and 100 μM, 72 h incubation, FIG. 2): concentration-dependent increase
- morphological observation of the cells (activation of apoptosis) ([3]; V79 cells): presence of cell membrane blebbing and the formation of apoptotic bodies
- cell viability [4]: not to affect cell viability
- cell viability [5]: not to affect cell viability
